# Measurements published in patent US7217722B2 (Kirin Beer Kabushiki Kaisha, priority 2000, dated 2007).
# Target: Rho kinase (fused protein of bovine Rho kinase catalyst region and glutathione S-transferase) (Bos taurus, UniProt Q28021)
# Assay: Rho kinase inhibitory activity (phosphorylation of S6 231–239 substrate, γ32P-ATP)
# Type: biochemical
# Settings: concentration inhibiting substrate phosphorylation by 50%
# Procedure: This permits the substrate to be labeled with the radioisotope.
# Thereafter, the substrate was adsorbed to a filter paper. ATP was washed away with a phosphoric acid solution, and the amount of the phosphorylated substrate was then measured with a liquid scintillation counter.
# Sequence of Rho kinase (fused protein of bovine Rho kinase catalyst region and glutathione S-transferase) (Q28021 92-354 limits assumed): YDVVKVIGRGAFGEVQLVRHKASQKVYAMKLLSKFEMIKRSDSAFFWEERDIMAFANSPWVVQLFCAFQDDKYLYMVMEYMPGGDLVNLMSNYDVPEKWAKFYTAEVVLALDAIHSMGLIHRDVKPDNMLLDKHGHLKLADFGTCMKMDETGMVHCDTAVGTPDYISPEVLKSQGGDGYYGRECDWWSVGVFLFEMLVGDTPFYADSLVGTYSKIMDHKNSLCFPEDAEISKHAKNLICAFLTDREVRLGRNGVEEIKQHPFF
row,Compound,IC50
1,"O=C(NCc1ccc(Cl)cc1Cl)Nc1ccc2c(c1)C(=O)NC2=O [Example 88, N-(2,4-Dichlorobenzyl)-N′-(1,3-dioxo-2,3-dihydro-1H-5-isoindolyl)urea]",440 nM
2,"O=C(NCc1c(F)c(F)c(F)c(F)c1F)Nc1ccncc1 [Example 97, N-(2,3,4,5,6-Pentafluorobenzyl)-N′-(4-pyridyl)urea]",2100 nM
3,"O=C(COc1ccc(O)cc1)Nc1ccc2[nH]ncc2c1 [Example 51, N1-(1H-5-Indazolyl)-2-(4-hydroxyphenoxy)acetamide]",459 nM
4,"c1cc(CN2CCC(Nc3ccc4[nH]ncc4c3)CC2)ccn1 [Example 133, N-(1H-5-Indazolyl)-N-[1-(4-pyridylmethyl)-4-piperidyl]amine]",680 nM
5,"O=C(Nc1ccncc1)Nc1c[nH]c2ccccc12 [Example 66, N-(1H-3-Indolyl)-N′-(4-pyridyl)urea]",6570 nM
6,"O=C(/C=C/c1c(Cl)cccc1Cl)Nc1ccncc1 [Example 7, N1-(4-Pyridyl)-(E)-3-(2,6-dichlorophenyl)-2-propeneamide]",2540 nM
7,"O=C(NCc1ccccc1Cl)Nc1ccc2c(c1)C(=O)NC2=O [Example 82, N-(2-Chlorobenzyl)-N′-(1,3-dioxo-2,3-dihydro-1H-5-isoindolyl)urea]",290 nM
8,"O=[N+]([O-])c1ccc(CN2CCC(Nc3ccc4[nH]ncc4c3)C2)cc1 (stereo not shown) [Example 159, N-(1H-5-Indazolyl)-N-[1-(4-nitrobenzyl)tetrahydro-1H-3-pyrrolyl]amine]",12 nM
9,"Brc1ccc(CN2CCCC(Nc3ccc4[nH]ncc4c3)C2)cc1 (stereo not shown) [Example 165, N-[1-(4-Bromobenzyl)-3-piperidyl]-N-(1H-5-indazolyl)amine]",11 nM
10,"CC(=O)Oc1ccc(CN2CCC(Nc3ccc4[nH]ncc4c3)CC2)cc1 [Example 149, 4-{[4-(1H-5-Indazolylamino)piperidino]methyl}phenyl acetate]",204 nM
11,"O=C(CCc1ccc2c(c1)OCO2)Nc1ccc2[nH]ncc2c1 [Example 52, N1-(1H-5-Indazolyl)-3-(1,3-benzodioxol-5-yl)propaneamide]",230 nM
12,"COC(=O)c1cccc(CN2CCC(Nc3ccc4[nH]ncc4c3)CC2)c1 [Example 147, Methyl 3-{[4-(1H-5-indazolylamino)piperidino]methyl}benzoate]",462 nM
13,"O=C(/C=C/c1ccccc1O)Nc1ccc2[nH]ncc2c1 [Example 35, N1-(1H-5-Indazolyl)-(E)-3-(2-hydroxyphenyl)-2-propeneamide]",1280 nM
14,"O=C(NCc1ccccc1[N+](=O)[O-])Nc1ccc2c(c1)C(=O)NC2=O [Example 86, N-(1,3-Dioxo-2,3-dihydro-1H-5-isoindolyl)-N′-(2-nitrobenzyl)urea]",900 nM
15,"COc1ccc(CN2CCCC(Nc3ccc4[nH]ncc4c3)C2)cc1 (stereo not shown) [Example 166, N-(1H-5-Indazolyl)-N-[1-(4-methoxybenzyl)-3-piperidyl]amine]",16 nM
16,"O=[N+]([O-])c1ccc(CN2CCC(Nc3ccc4[nH]ncc4c3)CC2)cc1 [Example 141, N-(1H-5-Indazolyl)-N-[1-(4-nitrobenzyl)-4-piperidyl]amine]",661 nM
17,"O=C(NCc1c(F)cccc1C(F)(F)F)Nc1ccc2c(c1)C(=O)NC2=O [Example 91, N-(1,3-Dioxo-2,3-dihydro-1H-5-isoindolyl)-N′-[2-fluoro-6-(trifluoromethyl)benzyl]urea]",99 nM
18,"CC(C)c1ccc(CN2CCC(Nc3ccc4[nH]ncc4c3)CC2)cc1 [Example 122, N-(1H-5-Indazolyl)-N-[1-(4-isopropylbenzyl)-4-piperidyl]amine]",309 nM
19,"c1ccc2cc(CN3CCC(Nc4ccc5[nH]ncc5c4)CC3)ccc2c1 [Example 116, N-(1H-5-Indazolyl)-N-[1-(2-naphthylmethyl)-4-piperidyl]amine]",136 nM
20,"O=C(NCc1cccc2ccccc12)Nc1ccc2c(c1)C(=O)NC2=O [Example 85, N-(1,3-Dioxo-2,3-dihydro-1H-5-isoindolyl)-N′-(1-naphthylmethyl)urea]",180 nM
21,"O=[N+]([O-])c1cccc(CN2CCC(Nc3ccc4[nH]ncc4c3)CC2)c1 [Example 140, N-(1H-5-Indazolyl)-N-[1-(3-nitrobenzyl)-4-piperidyl]amine]",465 nM
22,"Cc1ccc(CN2CCCC(Nc3ccc4[nH]ncc4c3)C2)cc1 (stereo not shown) [Example 167, N-(1H-5-Indazolyl)-N-[1-(4-methylbenzyl)-3-piperidyl]amine]",9 nM
23,"COc1cc(CN2CCCC(Nc3ccc4[nH]ncc4c3)C2)cc(OC)c1 (stereo not shown) [Example 170, N-[1-(3,5-Dimethoxybenzyl)-3-piperidyl]-N-(1H-5-indazolyl)amine]",80 nM
24,"O=C(COc1c(Cl)cccc1Cl)Nc1ccc2[nH]ncc2c1 [Example 14, N1-(1H-5-Indazolyl)-2-(2,6-dichlorophenoxy)acetamide]",1140 nM
25,O=C(Nc1ccncc1)Nc1c(F)cccc1C(F)(F)F [Example 58],13500 nM
26,"O=C(/C=C/c1cccc(O)c1)Nc1ccc2[nH]ncc2c1 [Example 36, N1-(1H-5-Indazolyl)-(E)-3-(3-hydroxyphenyl)-2-propeneamide]",600 nM

row,Compound,IC50
1,"O=C(/C=C/c1ccc(O)cc1)Nc1ccc2[nH]ncc2c1 [Example 37, N1-(1H-5-Indazolyl)-(E)-3-(4-hydroxyphenyl)-2-propeneamide]",305 nM
2,"O=C(Nc1ccc2c(c1)C(=O)NC2=O)Nc1c[nH]c2ccccc12 [Example 69, N-(1,3-Dioxo-2,3-dihydro-1H-5-isoindolyl)-N′-(1H-3-indolyl)urea]",2270 nM
3,"O=C(COc1c(Br)cc(F)cc1Br)Nc1ccncc1 [Example 2, N1-(4-Pyridyl)-2-(2,6-dibromo-4-fluorophenoxy)acetamide]",2210 nM
4,"O=C(NCc1ccccc1)Nc1ccncc1 [Example 92, N-Benzyl-N′-(4-pyridyl)urea]",10200 nM
5,"c1ccc(CCN2CCC(Nc3ccc4[nH]ncc4c3)CC2)cc1 [Example 130, N-(1H-5-Indazolyl)-N-(1-phenethyl-4-piperidyl)amine]",457 nM
6,"O=C(Nc1ccc2c(c1)C(=O)NC2=O)Nc1ccc2[nH]ccc2c1 [Example 70, N-(1,3-Dioxo-2,3-dihydro-1H-5-isoindolyl)-N′-(1H-5-indolyl)urea]",400 nM
7,"O=C(Cc1cccc([N+](=O)[O-])c1)Nc1ccc2[nH]ncc2c1 [Example 48, N1-(1H-5-Indazolyl)-2-(3-nitrophenyl)acetamide]",191 nM
8,"O=C(NCc1c(F)cc(F)cc1F)Nc1ccc2c(c1)C(=O)NC2=O [Example 99, N-(1,3-Dioxo-2,3-dihydro-1H-5-isoindolyl)-N′-(2,4,6-trifluorobenzyl)urea]",240 nM
9,"c1cncc(CN2CCC(Nc3ccc4[nH]ncc4c3)CC2)c1 [Example 132, N-(1H-5-Indazolyl)-N-[1-(3-pyridylmethyl)-4-piperidyl]amine]",603 nM
10,"O=[N+]([O-])c1cccc(CN2CCC(Nc3ccc4[nH]ncc4c3)C2)c1 (stereo not shown) [Example 158, N-(1H-5-Indazolyl)-N-[1-(3-nitrobenzyl)tetrahydro-1H-3-pyrrolyl]amine]",5 nM
11,"O=C(NCc1c(F)cccc1C(F)(F)F)Nc1ccncc1 [Example 64, N-[2-Fluoro-6-(trifluoromethyl)benzyl]-N′-(4-pyridyl)urea]",2190 nM
12,"O=C(Nc1ccncc1)Nc1c(Cl)cc(C(F)(F)F)cc1Cl [Example 63, N-[2,6-Dichloro-4-(trifluoromethyl)phenyl]-N′-(4-pyridyl)urea]",2500 nM
13,"O=C(NCc1c(Cl)ccc(Cl)c1Cl)Nc1ccc2[nH]ncc2c1 [Example 101, N-(1H-5-Indazolyl)-N′-(2,3,6-trichloro-benzyl)urea]",1800 nM
14,"FC(F)(F)c1ccc(CN2CCC(Nc3ccc4[nH]ncc4c3)CC2)cc1 [Example 118, N-(1H-5-Indazolyl)-N-{1-[4-(trifluoromethyl)benzyl]-4-piperidyl}amine]",275 nM
15,"O=C(Nc1cccc([N+](=O)[O-])c1)Nc1ccc2c(c1)C(=O)NC2=O [Example 78, N-(1,3-Dioxo-2,3-dihydro-1H-5-isoindolyl)-N′-(3-nitrophenyl)urea]",10400 nM
16,"O=C(Cc1ccc([N+](=O)[O-])cc1[N+](=O)[O-])Nc1ccc2[nH]ncc2c1 [Example 39, N1-(1H-5-Indazolyl)-2-(2,4-dinitrophenyl)acetamide]",122 nM
17,"O=C(Nc1ccncc1)Nc1c(F)cccc1Cl [Example 18, N-(2-Chloro-6-fluorophenyl)-N′-(4-pyridyl)urea]",2870 nM
18,"O=C(COc1c(Cl)cc(F)cc1Cl)Nc1ncnc2[nH]ncc12 [Example 32, N1-(1H-Pyrazolo[3,4-d]pyrimidin-4-yl)-2-(2,6-dichloro-4-fluorophenoxy)acetamide]",1370 nM
19,"O=C(NCc1c(F)cc(F)cc1F)Nc1ccc2[nH]ncc2c1 [Example 103, N-(1H-5-Indazolyl)-N′-(2,4,6-trifluorobenzyl)urea]",260 nM
20,"Clc1ccccc1CN1CCC(Nc2ccc3[nH]ncc3c2)CC1 [Example 134, N-[1-(2-Chlorobenzyl)-4-piperidyl]-N-(1H-5-indazolyl)amine]",436 nM
21,"O=C(Cc1ccc([N+](=O)[O-])cc1)Nc1ccc2[nH]ncc2c1 [Example 49, N1-(1H-5-Indazolyl)-2-(4-nitrophenyl)acetamide]",513 nM
22,"CCCNC(=O)Nc1ccc2c(c1)C(=O)NC2=O [Example 74, N-(1,3-Dioxo-2,3-dihydro-1H-5-isoindolyl)-N′-propylurea]",8300 nM
23,"O=C(NCc1c(F)cc(F)cc1F)Nc1ccncc1 [Example 77, N-(4-Pyridyl)-N′-(2,4,6-trifluorobenzyl)urea]",4070 nM
24,"O=C(CC1CCCCC1)Nc1ccc2[nH]ncc2c1 [Example 34, N1-(1H-5-Indazoyl)-1-cyclohexylacetamide]",870 nM
25,"Clc1ccc(CN2CCC(Nc3ccc4[nH]ncc4c3)CC2)cc1Cl [Example 114, N-[1-(3,4-Dichlorobenzyl)-4-piperidyl]-N-(1H-5-indazolyl)amine]",329 nM
26,"Oc1ccc(CN2CCC(Nc3ccc4[nH]ncc4c3)CC2)cc1 [Example 145, 4-{[4-(1H-5-Indazolylamino)piperidino]methyl}phenol]",290 nM
